Test systems include UACC-62 melanoma; SR leukemia; BT-549 breast; SNB-75 CNS; RPMI-8226 leukemia; MCF7 breast; SN12C renal; HS 578T breast; HCC-2998 colon; ACHN renal.
What all share (assay): NCI-60 cell line screen, 48 h

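Method: 48-hour compound exposure of cells in 96-well plates, five concentrations, linear interpolation of endpoints. At the GI50, growth is halved. TGI is the concentration that stops growth completely.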

For `CCCCCn1sc(=O)n(Cc2ccc(CNC(=O)C(C)c3ccc(CC(C)C)cc3)cc2)c1=O` (stereo not given), the GI50 in the test with UACC-62 melanoma is 1300 nM; in the test on SR leukemia, 452 nM; in the test with BT-549 breast, 0.972 µM; with SNB-75 CNS, 0.431 µM; with RPMI-8226 leukemia, 353 nM; with MCF7 breast it was 560 nM. Further, the GI50 is 1100 nM in the test on SN12C renal, 1.56 µM in the test with HS 578T breast, 1870 nM in the test with HCC-2998 colon and 498 nM in the test with ACHN renal. The TGI came out at 2.62 µM in the test on UACC-62 melanoma; 5.77 µM in the test on SR leukemia; 2.23 µM in the test on BT-549 breast; 1.86 µM in the test with SNB-75 CNS; 2.1 µM with RPMI-8226 leukemia; 2.26 µM with MCF7 breast. The TGI in the test with SN12C renal came out at 2.37 µM; in the test with HS 578T breast, 4.36 µM; with HCC-2998 colon it was 3.42 µM; with ACHN renal, 1.73 µM.

For `Cc1cnc(C(=O)Nc2nc3ccc(S(=O)(=O)Nc4ccc(C(C)(C)C)cc4)cc3[nH]2)cn1`, the GI50 with UACC-62 melanoma is 537 nM; in the test on SR leukemia, 133 nM; in the test on BT-549 breast, 1.12 µM; in the test on SNB-75 CNS, 0.216 µM; with RPMI-8226 leukemia, 470 nM; in the test on MCF7 breast it was 338 nM. Besides, the GI50 was 592 nM with SN12C renal, 0.422 µM with HS 578T breast, 1460 nM with HCC-2998 colon and 518 nM in the test on ACHN renal. In addition, the TGI worked out at 13 µM in the test with UACC-62 melanoma; 12.5 µM in the test with SR leukemia; 13.6 µM in the test with BT-549 breast; 1.01 µM with SNB-75 CNS; 12.4 µM with RPMI-8226 leukemia; 11.3 µM in the test with MCF7 breast. Also, the TGI in the test with SN12C renal turned out to be 13.3 µM; in the test on HS 578T breast, 10.6 µM; in the test on HCC-2998 colon, 10.7 µM; with ACHN renal, 14.2 µM.

For the molecule `CCCCCCCCCC(=O)Oc1ccc(/C(=C(/C)c2ccccc2)c2ccc(OCCN3CCCC3)cc2)cc1`, the GI50 in the test with UACC-62 melanoma is 9180 nM; in the test with SR leukemia it was 9080 nM; in the test on BT-549 breast, 8.22 µM; in the test with SNB-75 CNS it was 6.56 µM; with RPMI-8226 leukemia it was 9130 nM; with MCF7 breast it was 5 nM. The GI50 in the test on SN12C renal was 9150 nM; with HS 578T breast it was 9.55 µM; in the test with HCC-2998 colon, 8660 nM; with ACHN renal it was 8160 nM. Moreover, the TGI in the test on UACC-62 melanoma was found to be 16.8 µM; in the test with SR leukemia, 19 µM; in the test with BT-549 breast it was 16.8 µM; in the test on SNB-75 CNS it was 13.5 µM; in the test with RPMI-8226 leukemia it was 21 µM; in the test on MCF7 breast it was 10.3 µM. Besides, the TGI in the test on SN12C renal is 17.9 µM; with HS 578T breast it was 32.2 µM; in the test on HCC-2998 colon it was 17.2 µM; with ACHN renal, 15.5 µM.

Consider `CNC(=O)c1sc(-n2cnc3cc(OC)c(OC)cc32)cc1OCc1ccccc1C(F)(F)F`, for which the GI50 with UACC-62 melanoma was over 22600 nM; in the test with SR leukemia, 9490 nM; in the test with BT-549 breast, over 25 µM; with SNB-75 CNS, over 15.8 µM; in the test with RPMI-8226 leukemia it was over 25000 nM; in the test on MCF7 breast, over 25000 nM. The GI50 in the test on SN12C renal was over 25000 nM; in the test with HS 578T breast, over 25 µM; in the test with HCC-2998 colon, over 25000 nM; in the test with ACHN renal it was over 25000 nM. For the same molecule, the TGI in the test on UACC-62 melanoma, in the test with SR leukemia, with BT-549 breast, with SNB-75 CNS, with RPMI-8226 leukemia and in the test on MCF7 breast was over 25 µM throughout. The TGI with SN12C renal, in the test on HS 578T breast, with HCC-2998 colon and with ACHN renal was over 25 µM in each case.

With `COc1ccc2c(c1O)[C@@]13CCCC=C1[C@@H](C2)N(C)CC3`, the TGI in the test with UACC-62 melanoma is over 100 µM; with SR leukemia it was 81.5 µM; in the test on BT-549 breast, over 100 µM; with SNB-75 CNS it was over 100 µM; with RPMI-8226 leukemia, over 100 µM; in the test with MCF7 breast it was over 100 µM. In addition, the TGI with SN12C renal, in the test with HS 578T breast, with HCC-2998 colon and in the test on ACHN renal was over 100 µM each time.

Regarding `O=C1c2ccc3c4c(ccc(c24)C(=O)N1CCCCO)C(=O)N(CCCCO)C3=O`, the GI50 was 726 nM with UACC-62 melanoma; 745 nM in the test on SR leukemia; 4.82 µM in the test with BT-549 breast; 3.12 µM in the test on SNB-75 CNS; 2790 nM in the test on RPMI-8226 leukemia; 1430 nM in the test on MCF7 breast. The GI50 with SN12C renal is 1880 nM; in the test with HS 578T breast it was 5.14 µM; in the test on HCC-2998 colon, 1910 nM; with ACHN renal it was 920 nM. Further, the TGI in the test on UACC-62 melanoma was 2.28 µM; with SR leukemia, 21.5 µM; in the test on BT-549 breast, 17.4 µM; in the test with SNB-75 CNS, 13.6 µM; in the test with RPMI-8226 leukemia, 14.3 µM; in the test with MCF7 breast, 3.84 µM. The TGI in the test on SN12C renal worked out at 6.63 µM; in the test on HS 578T breast, 24 µM; with HCC-2998 colon, 10.5 µM; in the test on ACHN renal, 5.18 µM.

These data come from PubChem BioAssay (NCI).
